Where a name gives a salt, the structure may show the parent alone.

What all share (type): physicochemical
Data set [1] is described as follows: Differential scanning calorimetry (Example 8). Conditions: DSC, 10° C. min^−1. The protocol: Prior to sample analysis, a baseline was obtained which was used as a background. […] Temperature and enthalpy were calibrated with the standard materials indium (melting point=156.6° C.) and zinc (melting point=419.5° C.). Samples (1-10) were accurately weighed into pierced, crimped aluminium pans and heated at 10° C. min^−1 over a heating range of 25-290° C. under a nitrogen purge. A chiller unit was used in conjunction with the calorimeter to attain the lower temperatures.

A short description of data set [2]: Laser diffraction HELOS/RODOS of TBS (Example 8). Conditions: for Sympatec D4, 3 (μm): 2 bar. The protocol:
A small amount of TBS powder was analysed using a laser diffraction RODOS/VIBRI dispersing system (HELOS/RODOS, Sympatec GmbH, Clausthal-Zellerfeld, Germany). The instrument consisted of a laser sensor HELOS and a RODOS dry-powder air-dispersion system (Sympatec GmbH, Clausthal-Zellerfeld, Germany). Different measurement ranges of the laser sensor were provided by interchangeable objectives R1 (0.1-35 μm) and R2 (0.25-87.5 μm). The rate of powder dispersion was controlled by adjusting the pressure of the compressed air flow. A pressure of 2 bar was sufficient to achieve deagglomeration of primary particles without attrition.

The nature of data set [3]: AEROSIZER time-of-flight of TBS (Example 8). The protocol: The TBS samples were also analysed using an AEROSIZER™ (Amherst Process Instruments, Amherst, Mass., USA), provided with pulse jet disperser, the AERODISPERSER™, to introduce the powders to the instrument. The measurement range of the AEROSIZER™ is nominally from 0.2 to 200 μm of aerodynamic diameter with the standard 750 μm diameter tapered nozzle. The micronized and SEDS™ TBS samples were analyzed for 300 seconds in triplicate using normal deagglomeration conditions, feed rate (5000 particles per second) and medium shear force (0.5 psi).

A short description of data set [4]: Isothermal microcalorimetry, TAM with RH ramp (Example 8). Conditions: 25° C., RH ramp 0 to 90% at 3% RH/hr. As to the method: A Thermal Activity Monitor (TAM, model 2277; Thermometric A B, Jrflla, Sweden) was used to measure the calorimetric heat flow (μW) vs. % RH profile of each sample. A RH-perfusion cell (Model 2255-120) accessory for the TAM was used to control RH within the sample vessel. The carrier gas, dry N2, was flowed at a constant rate (1.48 cm^3/min). All experiments were performed at 25° C. About 100 to 105 mg accurately weighed of each powder were placed in a stainless steel ampoule, attached to the RH perfusion cell, and then dried under 0% RH until a stable heat flow signal was reached (e.g., a signal within the range of −1 to +1 μW). The RH was then increased in a linear ramp from 0 to 90% over the following 30 hours (i.e., 3% RH/hr). The heat flow arising from interactions of water vapor with the solid sample was measured as a function of time. Since RH changed with time in a linear fashion, the heat flow was also known as a function of RH.
The TAM measures the total heat flow in power, P, produced from either a physical or chemical reaction. In this study, the calorimetric power is proportional to the rate of moisture sorption or desorption, crystallization, and/or other processes. Exothermic events are measured as a deflection in the positive y-axis direction. Although crystallization is an exothermic process, it can be observed as a net endothermic process. During crystallization, there is an exotherm due to crystallization and a simultaneous endotherm due to desorption of previously sorbed moisture. The TAM profile gives the resultant of these processes.

Data set [5] is described as follows: Inverse gas chromatography of TBS (Example 8). The protocol:
An empty GC column was uniformly packed with the powder of interest (TBS). Pre-silanized commercially available straight glass columns of 30 cm length with a 3 mm internal diameter were used in this investigation. The silanation procedure was necessary to minimize active sites on the inner glass surfaces, which strongly interact with polar probes. Each column was packed at the detector end with a small amount of silanised glass wool, was clipped to a stand and powder was added through a glass funnel with the aid of a mechanical column packer (tapping) to improve powder flow and remove any air gaps. […] A. Hewlett Packard 6890 Series Gas Chromatograph (GC) (Hewlett Packard, Penna, USA) oven equipped with an autosampler was used to control the solvent temperature. The 6890 GC data acquisition system was used to record data from a thermal conductivity detector (TCD) and flame ionisation detector (FID) with the instrument modified for IGC by Surface Measurement Systems (SMS), Manchester, UK. The combination of detectors allowed sensitive analysis of both organic vapour elution and water (although RH was not raised above 0% for these experiments).
The whole system was fully automated by control software (SMS iGC Controller v1.3) and the data analyzed using SMS iGC Analysis macros. Prior to analysis, each column was equilibrated at 30° C. and 0% relative humidity (RH) for 5 hours by passing dry helium gas through the column. Helium gas was also used as the carrier gas. Hydrogen and compressed air flow rates were set at 40 and 450 ml min respectively for the FID. The chromatograph injection port was maintained at 80° C., TCD detector at 150° C. and the FID detector at 150° C. Column temperature was set at 30° C. throughout analysis. Data were obtained by flowing helium gas at 10 ml min^−1 through the sinalized glass column packed with a known weight of powdered material and injecting small amounts (concentration P/Po=0.05) of a range of probe vapors with different polarities. The retention times of the probes were measured using SMS iGC Controller v1.3 software, at infinite dilution or near zero surface coverage (equivalent to 10^−4-10^−7 μl of liquid) where retention is independent of the quantity of probe injected. For each sample, two columns were prepared and analysed by employing a method based on standard settings, which allows the precise control and measurement of experimental variables. This is essential in producing meaningful results. The data were used to calculate the dispersive and non-dispersive forces acting at TBS particle surfaces using the method developed by Schultz and co-workers (J. Schultz, L. Lavielle and C. Martin. The role of the interface in carbon fibre-epoxy composites, J. Adhesion, 23, 45-60 (1987)).

The nature of data set [6]: AFM adhesion force of particles (Example 10). Conditions: for adhesion force per unit area: following correction for surface area; for initial adhesion force for individual particles: in 2H 3H perfluoropentane. As to the method:
The example assessed the force of adhesion of particles of salbutamol sulfate produced using a SEDS™ processes compared to the same compound in micronized form. Conventional AFM analysis was used. Particles of the samples were mounted onto AFM probes and the adhesion force per unit area to a freshly cleaved highly oriented pyrolytic graphite substrate (HOP G, Agar Scientific, Essex, UK) in a liquid (2H 3H perfluoropentane) environment was determined. The contact area involved in the interaction was assessed and related to the force measurements.

Data set [7] can be described thus: Particle size by Helos/Rodos laser diffraction (Example 1). Conditions: geometric projection-equivalent volume mean diameter. The protocol: (§1) PSD measurements were performed using firstly, AEROSIZER® time-of-flight instrument equipped with AERO-[…]® (TSI Inc., Minneapolis. USA) and secondly, laser diffraction sensor Helos with dry-powder air-dispersion system Rodos (Sympatec GmbH. Germany). The volume mean particle diameter, VMD, was obtained for both instruments using software options. In the general case of non-spherical particles, these instruments cannot provide the exact value of VMD, however, the time-of-flight technique gives an aerodynamic-equivalent particle diameter, whereas the laser diffraction method provides the geometric projection-equivalent diameter. These diameters afford the complementary information on PSD and therefore can be used for comparative size analysis.

A short description of data set [8]: Particle size by AeroSizer time-of-flight (Example 1). Conditions: aerodynamic-equivalent volume mean diameter. The protocol:
as §1

Data set [9] in a line: Inverse gas chromatography surface energy (Example 1). Conditions: 303K; for ΔGA (kJ/mol) Acetone: probe acetone; for ΔGA (kJ/mol) Chloroform: probe chloroform; for ΔGA (kJ/mol) Dioxane: probe dioxane; for ΔGA (kJ/mol) Ethyl acetate: probe ethyl acetate; for ΔGA (kJ/mol) Toluene: probe toluene. The text has this: For TBS and FHBr powders, IGC was done using a Hewlett Packard Series 6890 instrument which was specifically modified for IGC measurements by Surface Measurement Systems Ltd (Manchester, UK). The IGC method is described in detail by Tong et al. 2001. (Tong H. H. Y., B. Y. Shekunov, P. York, A. H. L. Chow, 2001. Pharm. Res. 18, 852.) Triplicate measurements in separate packed columns were made. […] The γS^D and ΔGA values were obtained at 303K.

Data set [10] in a line: AEROFLOW powder avalanching (Example 8). Conditions: listed as Micronized. As to the method:
An AEROFLOW™ powder avalanching apparatus (Amherst Process Instruments, API, Amherst, USA) was employed to analyze the dynamic avalanching behaviour of micronized and SC processed TBS samples. The AEROFLOW™ apparatus consists of a transparent rotating drum with a port at the front. A white light source is positioned in front of the drum and a masked array of photocells is behind the drum. To measure avalanching, 50 ml of the drug powder was added to the drum, which is about 15% of its total volume to ensure good powder mixing during the operation. As the drum rotates, the powder bed is carried upwards until an unstable state is reached and an avalanche occurs.
The time between successive avalanches was recorded by the projection of the light beam through the drum onto the photocell array. The photocells generated a voltage dependent on the amount of light falling on the cells and the area of unmasked photocells shielded from the light source by the powder. The voltage output (transmitted light intensity) was recorded by a computer, which translates the output as powder movement using a technique disclosed in B. H. Kaye. Characterizing the flowability of a powder using the concepts of fractal geometry and chaos theory, Part. Part. Charact. 14: 53-66 (1997). Each TBS sample was tested in duplicate and mean avalanche time and irregularity (scatter) of avalanches were recorded.

The mark [11] stands for this setting: listed as micronized terbutaline sulphate.

Take `CC(C)(C)NCC(O)c1cc(O)cc(O)c1` (stereo not drawn) [TBS 3, terbutaline sulfate]: the “Enthalpy of Fusion” value in [1] is 31.35 J/g. In addition, in data set [2], the “Sympatec D4, 3 (μm)” value came out at 1.99 μm. For the same molecule, the “Aerosizer D4, 3 (μm)” value in data set [3] was 6.69 μm.

Regarding `CC(C)(C)NCC(O)c1cc(O)cc(O)c1` (stereo not drawn) [TBS 5, terbutaline sulfate], the “Enthalpy of Fusion” value in data set [1] was 57.69 J/g. Moreover, the “Sympatec D4, 3 (μm)” value in [2] came to 4.84 μm. For the same molecule, the “Aerosizer D4, 3 (μm)” value in data set [3] was 11.44 μm.

On to `CC(C)(C)NCC(O)c1cc(O)cc(O)c1` (stereo not drawn) [TBS 1, terbutaline sulfate], for which the “RH of thermal event in TAM profile” value in data set [4] is “No exothermic or endothermic peaks were observed”. The “Enthalpy of Fusion” value in [1] and in data set [1] (listed as TBS1) was 127.12 J/g throughout. Further, in data set [2], the “Sympatec D4, 3 (μm)” value came to 3.22 μm. The KA in data set [5] is listed as 0.761. Besides, the “γs^D mJm^−2” value in [5] (30° C., 0% RH) turned out to be 57.37 mJm^−2. Moreover, the “−ΔGA^SP (kJ/mol) Acetone” value in data set [5] (probe acetone) is 13.41 kJ/mol. The “−ΔGA^SP (kJ/mol) Ethyl acetate” value in data set [5] (probe ethyl acetate) is on record as 16.65 kJ/mol. The “−ΔGA^SP (kJ/mol) Toluene” value in [5] (probe toluene) is 3.66 kJ/mol. Moreover, in [3], the “Aerosizer D4, 3 (μm)” value came out at 3.31 μm.

With “salbutamol sulfate [SEDS™ produced material]”, in data set [6], the “adhesion force per unit area” value was determined as 13.52 nN/μm^2 and the “initial adhesion force for individual particles” value was 4.21 nN.

As for `CC(C)(C)NCC(O)c1cc(O)cc(O)c1` (stereo not drawn) [TSB Micronised, terbutaline sulphate, reference compound], in data set [4] (listed as micronized TBS), the “RH of thermal event in TAM profile” value was “about 79 % RH”. In addition, in data set [7], the “VMD (μm) (laser diffraction)” value was 3.04 μm. Besides, in data set [2] (setting [11]), the “Sympatec D4, 3 (μm)” value is given as 3.0 μm and the “particle size, 90% less than” value is on record as “less than 5 μm”. Also, the “VMD (μm) (Time of flight)” value in [8] is recorded as 2.7 μm. Further, in data set [9], the “γs^D (mJ/m^2)” value was determined as 58.61 mJ/m^2, the “ΔGA (kJ/mol) Acetone” value was 12.57 kJ/mol, the “ΔGA (kJ/mol) Chloroform” value stood at 1.79 kJ/mol and the “ΔGA (kJ/mol) Dioxane” value stood at 15.96 kJ/mol. For the same molecule, in data set [9], the “ΔGA (kJ/mol) Ethyl acetate” value is 16.01 kJ/mol and the “ΔGA (kJ/mol) Toluene” value was determined as 3.42 kJ/mol. In data set [10] (100 sec/rev), the “Irregularity of flow” value amounted to 1.28 s and the “Mean time to avalanche” value is 3.62 s. Moreover, in [10] (145 sec/rev), the “Irregularity of flow” value stood at 2.39 s and the “Mean time to avalanche” value turned out to be 5.72 s.

Regarding `CC(C)(C)NCC(O)c1cc(O)cc(O)c1` (stereo not drawn) [TBS 4, terbutaline sulfate], in data set [1], the “Enthalpy of Fusion” value turned out to be 40.98 J/g. Also, the “Sympatec D4, 3 (μm)” value in data set [2] was determined as 4.75 μm. The “Aerosizer D4, 3 (μm)” value in data set [3] turned out to be 15.53 μm.

Regarding “salbutamol sulfate [micronized material, reference compound]”, in data set [6], the “adhesion force per unit area” value was found to be 100.91 nN/μm^2 and the “initial adhesion force for individual particles” value is on record as 15.77 nN.

With `CC(Cc1ccc(O)cc1)NCC(O)c1cc(O)cc(O)c1` (stereo not drawn) [FHBr Micronised, fenoterol hydrobromide, reference compound], the “VMD (μm) (laser diffraction)” value in data set [7] (hydrobromide) turned out to be 2.34 μm. The “VMD (μm) (Time of flight)” value in data set [8] is reported as 1.7 μm. For the same molecule, in data set [9] (hydrobromide), the “γs^D (mJ/m^2)” value turned out to be 48.53 mJ/m^2, the “ΔGA (kJ/mol) Chloroform” value worked out at 0.69 kJ/mol and the “ΔGA (kJ/mol) Toluene” value was found to be 4.77 kJ/mol.

As to `CC(Cc1ccc(O)cc1)NCC(O)c1cc(O)cc(O)c1` (stereo not drawn) [FHBr SEDS, fenoterol hydrobromide], in data set [7] (hydrobromide), the “VMD (μm) (laser diffraction)” value is recorded as 3.55 μm. Moreover, in [8], the “VMD (μm) (Time of flight)” value stood at 1.7 μm. Besides, in [9] (hydrobromide), the “γs^D (mJ/m^2)” value is 49.87 mJ/m^2, the “ΔGA (kJ/mol) Chloroform” value was found to be 0.63 kJ/mol and the “ΔGA (kJ/mol) Toluene” value came to 3.86 kJ/mol. Further, in data set [9], the “ΔGA (kJ/mol) Acetone” value was 13.15 kJ/mol, the “ΔGA (kJ/mol) Dioxane” value worked out at 15.32 kJ/mol and the “ΔGA (kJ/mol) Ethyl acetate” value is given as 17.48 kJ/mol.

(Values after patent US10945972B2, “Particulate materials” (Nektar Therapeutics, priority 2002, dated 2021).)
